Laboratory results published in patent US20020165283A1, “Preservative blends containing quaternary ammonium compounds” (LONZA INC., priority 2001, published 2002).

Test system: S. aureus, P. aeruginosa, and E. coli
Assay: Mixed bacterial challenge of preserved anionic protein shampoo samples (plate counts)
Type: cell-based
Protocol: Each anionic shampoo sample in Table 1 below was tested as follows. A standardized mixed bacterial solution was prepared according to the following procedure. 3 agar stabs of S. aureus (ATCC#6538), P. aeruginosa (ATCC#9027), and E. coli (ATCC #8739) were separately incubated at about 35° C. for about 24 hours. Each stab was then washed with 3 mL of sterile 0.85% saline solution. The washes of the 3 stabs were pooled together to form an organism mixture. The absorbance of the organism mixture at 530 nm was adjusted to about 1.00 by adding saline. The spectrometer was calibrated with a saline blank. A 5 mL aliquot of the organism mixture was mixed together to produce the standardized mixed bacterial solution. Then, 40 g of each shampoo sample was inoculated with 0.2 mL of the standardized mixed bacterial solution and mixed. 1 g of the mixture was added to a sterile 20×150 mm screw cap test tube. 9 mL of sterile D/E neutralizer broth was added to the test tube and mixed to form a 10^−1 dilution,. Serial dilutions were prepared through to a 10^−6 dilution with phosphate buffered water. The serial dilutions were plated onto Tryptic Soy Agar and incubated for 2 days at about 35° C. Bacteria counts were performed after 0 and 14 days.
The anionic protein shampoo composition was comprised of 35% by weight of sodium lauryl ether sulfate; 25% by weight of triethanolamine lauryl sulfate; 3% by weight coconut diethanolamide (cocamide DEA); 1% by weight of hydrolyzed collagen, available as Polypro 5000™ from Hormel Foods of Austin, Minn.; and 36% by weight of deionized water.
The sodium dehydroacetate monohydrate, sodium salicylate, and Hyamine® 1622 shampoo samples were prepared by mixing the appropriate amounts of the preservatives and the aforementioned anionic protein shampoo composition and heating the mixture to about 50° C. for about 15 minutes.
(§1) The procedure described in Example 1 was repeated with the anionic shampoos in Table 3 below. The bacterial counts were performed after 0 and 7 days. The dehydroacetic acid (available from Lonza Inc. of Fair Lawn, N.J.) and Hyamine® 1622 shampoo samples were prepared by mixing the appropriate amounts of the preservatives and the anionic protein shampoo composition and heating the mixture to about 50° C. for about 15 minutes.
as §1, with “5” for “3”, “salicylic” for “bacterial counts were performed after 0 and 7 days. The dehydroacetic”, “Spectrum Chemical” for “Lonza Inc.”, “New Brunswick,” for “Fair Lawn,”, “for” for “for about”

[1] = Table 5, 0.2% of preservative alone
[2] = Table 1, 0.5% by weight of preservative alone
[3] = Table 1, 1.0% by weight of preservative alone

**Q.** Which results are given for `O=C(O)c1ccccc1O` [Salicylic Acid, salicylic acid]?
**A.** S. aureus, P. aeruginosa, and E. coli (cfu/g) Day 0 [1]: 3.1 × 10^6 cfu/g; S. aureus, P. aeruginosa, and E. coli (cfu/g) Day 14 [1]: 6.5 × 10^6 cfu/g

**Q.** What does the source list for `CC(=O)c1c([O-])cc(C)oc1=O.O.[Na+]` [Sodium Dehydroacetate Monohydrate, Sodium dehydroacetate monohydrate]?
**A.** S. aureus, P. aeruginosa, and E. coli (cfu/g) Day 0 [2]: 3.0 × 10^6 cfu/g; S. aureus, P. aeruginosa, and E. coli (cfu/g) Day 14 [2]: 4.0 × 10^3 cfu/g

**Q.** With `O=C([O-])c1ccccc1O.[Na+]` [Sodium Salicylate, Sodium salicylate] as the compound, how does the “S. aureus, P. aeruginosa, and E. coli (cfu/g) Day 0” value [3] read?
**A.** 3.0 × 10^6 cfu/g

**Q.** What about the “S. aureus, P. aeruginosa, and E. coli (cfu/g) Day 14” value [3] of the same compound?
**A.** 5.0 × 10^2 cfu/g

**Q.** Which “S. aureus, P. aeruginosa, and E. coli (cfu/g) Day 0” value (Table 3, 0.2% of preservative alone) does the source give for `CC(=O)C1C(=O)C=C(C)OC1=O` (centres unmarked) [Dehydroacetic Acid, dehydroacetic acid] here?
**A.** 2.5 × 10^6 cfu/g

**Q.** What about the “S. aureus, P. aeruginosa, and E. Coli (cfu/g) Day 7” value (Table 3, 0.2% of preservative alone, Day 7) of the same compound?
**A.** 4.4 × 10^4 cfu/g
